# Experimental data published in patent publication US20080287430A1, “Furan Compounds Useful As Ep1 Receptor Antagonists” (priority 2005, published 2008).
# Counter-ions that a name gives are not always drawn.
# What was measured:
# [1] = biological target: T1, human EP1 receptor (Homo sapiens, UniProt P34995); test: Binding assay for the human prostanoid EP1 receptor (competition with [3H]-PGE2); settings: binding to human EP1 receptor, [3H]-PGE2 competition, CHO-K1 cell membranes; averages of a number of experiments; read-out: pIC50 value (converted)
# T1 construct: expressed in transfected cells; host or cells: CHO-K1
# T1 sequence (P34995 1-402): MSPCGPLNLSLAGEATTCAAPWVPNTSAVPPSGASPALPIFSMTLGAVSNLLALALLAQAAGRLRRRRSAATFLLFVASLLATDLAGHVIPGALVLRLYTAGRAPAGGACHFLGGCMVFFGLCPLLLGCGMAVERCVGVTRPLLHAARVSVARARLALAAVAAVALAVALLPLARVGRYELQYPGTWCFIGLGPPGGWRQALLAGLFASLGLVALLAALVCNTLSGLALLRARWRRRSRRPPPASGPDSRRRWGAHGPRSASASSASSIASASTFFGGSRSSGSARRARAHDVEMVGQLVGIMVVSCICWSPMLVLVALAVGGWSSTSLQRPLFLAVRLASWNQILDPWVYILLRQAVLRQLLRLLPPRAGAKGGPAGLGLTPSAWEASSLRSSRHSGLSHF
# Experimental: Competition assay using [^3H]-PGE2.
# Compound potencies are determined using a radioligand binding assay. In this assay compound potencies are determined from their ability to compete with tritiated prostaglandin E2 ([^3H]-PGE2) for binding to the human EP1 receptor.
# This assay utilises Chinese hamster ovary-K1 (CHO-K1) cells into which a stable vector containing the EP1 cDNA has previously been transfected. Cells are cultured in suitable flasks containing culture medium such as DMEM:F-12 supplemented with 10% v/v foetal calf serum, 2 mM L-glutamine, 0.25 mg/ml geneticin, 10 μg/ml puromycin and 10 μM indomethacin.
# Cells are detached from the culture flasks by incubation in calcium and magnesium free phosphate buffered saline containing 1 mM disodium ethylenediaminetetraacetic acid (Na2EDTA) and 10 μM indomethacin for 5 min. The cells are isolated by centrifugation at 250×g for 5 mins and suspended in an ice cold buffer such as 50 mM Tris, 1 mM Na2EDTA, 140 mM NaCl, 10 μM indomethacin (pH 7.4). The cells are homogenised using a Polytron tissue disrupter (2×10 s burst at full setting), centrifuged at 48,000×g for 20 mins and the pellet containing the membrane fraction is washed (optional) three times by suspension and centrifugation at 48,000×g for 20 mins. The final membrane pellet is suspended in an assay buffer such as 10 mM 2-[N-morpholino]ethanesulphonic acid, 1 mM Na2EDTA, 10 mM MgCl2 (pH 6). Aliquots are frozen at −80° C. until required.
# For the binding assay the cell membranes, competing compounds and [^3H]-PGE2 (3 nM final assay concentration) are incubated in a final volume of 100 μl for 30 min at 30° C. All reagents are prepared in assay buffer. Reactions are terminated by rapid vacuum filtration over GF/B filters using a Brandell cell harvester. The filters are washed with ice cold assay buffer, dried and the radioactivity retained on the filters is measured by liquid scintillation counting in Packard TopCount scintillation counter.
# The data are analysed using non linear curve fitting techniques to determine the concentration of compound producing 50% inhibition of specific binding (IC50).
# [2] = biological target: T1, human EP1 receptor; test: human EP1 calcium mobilisation assay; assay type: cell-based; settings: human EP1, PGE2-induced calcium mobilisation in CHO-K1 cells; free bases or sodium salts; averages of a number of experiments; read-out: functional pKi value (converted)
# Method in brief: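 CHO-K1 cells stably expressing human EP1, loaded with Fluo-4 after 24 h at 37° C; compounds added before PGE2 challenge. Inhibition of PGE2-induced [Ca2+]i rise read by FLIPR fluorescence; pIC50 from curve fitting of half-maximal inhibition.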
Structure (SMILES),IC50 [1] [nM],Ki [2] [nM]
"O=C(NS(=O)(=O)c1ccccc1)c1ccc(Cc2cc(Cl)ccc2OCc2ccc(F)cc2F)o1 [Example 35, 5-[(5-Chloro-2-{[(2,4-difluorophenyl)methyl]oxy}phenyl)methyl]-N-(phenylsulfonyl)-2-furancarboxamide]",≤ 10,≤ 10
"O=C(O)c1ccc(Cc2cc(Cl)ccc2OCc2cc(F)c(F)c(F)c2)o1 [Example 24, Sodium 5-[(5-chloro-2-{[(3,4,5-trifluorophenyl)methyl]oxy}phenyl)methyl]-2-furancarboxylate]",–,≤ 10
"CC(C)(C)CNC(=O)c1ccc(Cc2cc(Cl)ccc2OCc2ccccc2)o1 [Example 52, 5-({5-Chloro-2-[(phenylmethyl)oxy]phenyl}methyl)-N-(2,2-dimethylpropyl)-2-furancarboxamide]",–,< 1000
"Cc1cccc(C)c1NC(=O)c1ccc(Cc2cc(Cl)ccc2OCc2ccccc2)o1 [Example 71, 5-({5-Chloro-2-[(phenylmethyl)oxy]-phenyl}methyl)-N-(2,6-dimethylphenyl)-2-furancarboxamide]",–,< 1000
"CCC(CC)Oc1ccc(Cl)cc1Cc1ccc(C(=O)O)o1 [Example 4, Sodium 5-({5-chloro-2-[(1-ethylpropyl)oxy]phenyl}methyl)-2-furancarboxylate]",–,< 1000
"O=C(O)c1ccc(Cc2cc(Cl)ccc2OCCc2ccccc2)o1 [Example 12, Sodium 5-({5-chloro-2-[(2-phenylethyl)oxy]phenyl}methyl)-2-furancarboxylate]",–,< 1000
"Cc1cc(COc2ccc(Cl)cc2Cc2ccc(C(=O)O)o2)on1 [Example 9, Sodium 5-[(5-chloro-2-{[(3-methyl-5-isoxazolyl)methyl]oxy}phenyl)methyl]-2-furancarboxylate]",–,< 1000
"CC(C)COc1ccc(Cl)cc1Cc1ccc(C(=O)NCc2ccc3c(c2)OCO3)o1 [Example 39, N-(1,3-Benzodioxol-5-ylmethyl)-5-({5-chloro-2-[(2-methylpropyl)oxy]phenyl}methyl)-2-furancarboxamide]",–,< 1000
"Cc1ccccc1NC(=O)c1ccc(Cc2cc(Cl)ccc2OCc2ccccc2)o1 [Example 73, 5-({5-Chloro-2-[(phenylmethyl)oxy]-phenyl}methyl)-N-(2-methylphenyl)-2-furancarboxamide]",–,< 1000
"O=C(Nc1ccccc1Cl)c1ccc(Cc2cc(Cl)ccc2OCc2ccccc2)o1 [Example 72, N-(2-chlorophenyl)-5-({5-chloro-2-[(phenylmethyl)oxy]-phenyl}methyl)-2-furancarboxamide]",–,< 1000
"O=C(O)Cc1ccc(Cc2cc(Cl)ccc2OCc2ccccc2)o1 [Example 16, Sodium [5-({5-chloro-2-[(phenylmethyl)oxy]phenyl}methyl)-2-furanyl]acetate]",–,≤ 10
"CC(C)COc1ccc(Cl)cc1Cc1ccc(C(=O)NCc2ccc(Cl)cc2)o1 [Example 41, 5-({5-Chloro-2-[(2-methylpropyl)oxy]phenyl}methyl)-N-[(4-chlorophenyl)methyl]-2-furancarboxamide]",–,< 1000

# More lines, now with the values ahead:
IC50 [1] [nM],Ki [2] [nM],Structure (SMILES)
≤ 10,< 1000,"COc1ccc2[nH]c(-c3ccc(Cc4cc(Cl)ccc4OCC(C)C)o3)nc2c1 [Example 105, 2-[5-({5-Chloro-2-[(2-methylpropyl)oxy]-phenyl}methyl)-2-furanyl]-5-(methyloxy)-1H-benzimidazole]"
≤ 10,< 1000,"Clc1ccc(OCc2ccccc2)c(Cc2ccc(-c3nc4ccccc4[nH]3)o2)c1 [Example 99, 2-[5-({5-Chloro-2-[(phenylmethyl)oxy]phenyl}methyl)-2-furanyl]-1H-benzimidazole]"
≤ 10,< 1000,"CC(C)COc1ccc(Cl)cc1Cc1ccc(-c2nc3ccc(CN(C)C(C)C)cc3[nH]2)o1 [Example 151, N-({2-[5-({5-Chloro-2-[(2-methylpropyl)oxy]-phenyl}methyl)-2-furanyl]-1H-benzimidazol-5-yl}methyl)-N-methyl-2-propanaminedihydrochloride]"
–,< 1000,"CC(C)COc1ccc(Cl)cc1Cc1ccc(-c2nc3cc(F)c(F)cc3[nH]2)o1 [Example 124, 2-[5-({5-Chloro-2-[(2-methylpropyl)oxy]phenyl}-methyl)-2-furanyl]-5,6-difluoro-1H-benzimidazole]"
–,< 1000,"CC(C)COc1ccc(Cl)cc1Cc1ccc(-c2nc3cc(Cl)ccc3[nH]2)o1 [Example 123, 5-Chloro-2-[5-({5-chloro-2-[(2-methylpropyl)oxy]phenyl}-methyl)-2-furanyl]-1H-benzimidazole]"
–,< 1000,"CN1CCN(c2ccc3[nH]c(-c4ccc(Cc5cc(Cl)ccc5OCc5ccccc5)o4)nc3c2)CC1 [Example 103, 2-[5-({5-Chloro-2-[(phenylmethyl)oxy]phenyl}methyl)-2-furanyl]-5-(4-methyl-1-piperazinyl)-1H-benzimidazolehydrochloride]"
–,< 1000,"CCN1CCN(c2ccc3nc(-c4ccc(Cc5cc(Cl)ccc5OCC(C)C)o4)[nH]c3c2)CC1 [Example 114, 2-[5-({5-Chloro-2-[(2-methylpropyl)oxy]-phenyl}methyl)-2-furanyl]-5-(4-ethyl-1-piperazinyl)-1H-benzimidazoletrihydrochloride]"
–,< 1000,"CC(C)COc1ccc(Cl)cc1Cc1ccc(-c2nc3ncccc3[nH]2)o1 [Example 116, 2-[5-({5-Chloro-2-[(2-methylpropyl)oxy]phenyl}-methyl)-2-furanyl]-1H-imidazo[4,5-b]pyridine]"
–,< 1000,"CC(C)COc1ccc(Cl)cc1Cc1ccc(-c2nc3cc4cn[nH]c4cc3[nH]2)o1 [Example 119, 6-[5-({5-Chloro-2-[(2-methylpropyl)oxy]phenyl}-methyl)-2-furanyl]-1,5-dihydroimidazo[4,5-f]indazole]"
–,< 1000,"O=C(Nc1c(F)cccc1F)c1ccc(Cc2cc(Cl)ccc2OCC2CCCCC2)o1 [Example 96, 5-({5-Chloro-2-[(cyclohexylmethyl)oxy]-phenyl}methyl)-N-(2,6-difluorophenyl)-2-furancarboxamide]"
–,< 1000,"Clc1ccc(OCc2ccccc2)c(Cc2ccc(-c3nc4cnccc4[nH]3)o2)c1 [Example 120, 2-[5-({5-Chloro-2-[(phenylmethyl)oxy]-phenyl}methyl)-2-furanyl]-1H-imidazo[4,5-c]pyridine hydrochloride]"
–,< 1000,"O=C(Nc1c(F)cccc1F)c1ccc(Cc2cc(Cl)ccc2OCc2c(F)cc(F)cc2F)o1 [Example 83, 5-[(5-Chloro-2-{[(2,4,6-trifluorophenyl)methyl]oxy}-phenyl)methyl]-N-(2,6-difluorophenyl)-2-furancarboxamide]"
–,< 1000,"CC(C)COc1ccc(Cl)cc1Cc1ccc(-c2nc3ccc(F)c(F)c3[nH]2)o1 [Example 128, 2-[5-({5-Chloro-2-[(2-methylpropyl)oxy]phenyl}-methyl)-2-furanyl]-4,5-difluoro-1H-benzimidazole]"
–,< 1000,"CC(C)COc1ccc(Cl)cc1Cc1ccc(-c2nc3ccc(CN4CCOCC4)cc3[nH]2)o1 [Example 144, 2-[5-({5-Chloro-2-[(2-methylpropyl)oxy]-phenyl}methyl)-2-furanyl]-5-(4-morpholinylmethyl)-1H-benzimidazoledihydrochloride]"
–,< 1000,"O=C(Nc1ccccc1Br)c1ccc(Cc2cc(Cl)ccc2OCc2ccccc2)o1 [Example 76, N-(2-bromophenyl)-5-({5-chloro-2-[(phenylmethyl)oxy]-phenyl}methyl)-2-furancarboxamide]"
–,< 1000,"O=C(Nc1c(F)cccc1F)c1ccc(Cc2cc(Cl)ccc2OCc2c(F)cccc2F)o1 [Example 85, 5-[(5-Chloro-2-{[(2,6-difluorophenyl)methyl]oxy}-phenyl)methyl]-N-(2,6-difluorophenyl)-2-furancarboxamide]"
